PubChem BioAssay (NCI)
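1) Cells in 96-well plates. 2) Compound, 48 h, 5 concentrations. 3) Linear interpolation between surrounding doses. 4) Unreached endpoint = highest concentration. The concentration for 50% growth inhibition is given as GI50. TGI: total growth inhibition.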

tested on: OVCAR-4 ovarian; experiment: NCI-60 cell line screen, 48 h

SMILES	GI50 [µM]	TGI [µM]
Nc1nc(Br)nc2c1ncn2C1CC(O)C(CO)O1 (stereo not given)	> 100	> 100
Nc1nc(Nc2ccccc2)c2ncn(Cc3cc4c(cc3Br)OCO4)c2n1	0.326	55.1
CCOC(=O)N1CCN(C(=O)c2ccc(C(F)(F)F)nc2Nc2cc(Cl)ccc2C)CC1	11.8	55.1
Cc1ccc(Nc2nc(N)c(C(=O)c3ccc(C#N)cc3)s2)cc1	3.86	> 68.4
C#CC(=O)Nc1cccc(Nc2nc3c(c(NCc4ccccc4)n2)CCCC3)c1	0.291	1.02
CCCCCCCCCc1cc(=O)c2c(O)cccc2o1		> 100
N#CC1Nc2ccccc2[C@@H](O)C1O (stereo not given in full)		> 100
CC(C)c1ccccc1S(=O)c1ccccc1C(C)(C)O (stereo not given)		> 100
Cc1c(C2Nc3ccccc3C2C)[nH]c2ccccc12 (stereo not given)	6.17	21.6
CCN(CC)CCNCC(=O)Oc1ccc(/C=C/C(=O)CC(=O)/C=C/c2ccc(OC(=O)CNCCN(CC)CC)c(OC)c2)cc1OC	8.67	> 100
COC(=O)C12C3C4C5(C(=O)OC)C(C1C35C(=O)N(C(C)C)C(C)C)C42C(=O)N(C(C)C)C(C)C (stereo not given)		> 50
Cc1cc(C)n(CCNCCn2nc(C)cc2C)n1		> 100
O=C1CSC(Cc2nc3ccccc3[nH]2)=N1		41.6
CCCS(=O)(=O)Nc1ccc(Nc2c3ccccc3nc3ccccc23)c(OC)c1		32.4
CN(C)Cc1c[nH]c2c1C(=O)c1c(c(O)c3ccccc3c1O)C2=O	20.1	42.6

tested on: DU-145 prostate; experiment: NCI-60 cell line screen, 48 h

SMILES	TGI [µM]	GI50 [nM]
N#CC1(C2SCCS2=O)C2=C(C(=O)c3ccccc3C2=O)N2CCCC21 (stereo not given)	4.93	
CC(=O)Oc1ccccc1C(=O)N=C1[Se]CCN1C(=O)c1ccccc1OC(C)=O	2.18	610
Cc1n(Cc2ccc3ccccc3c2)cc[n+]1Cc1ccc2ccccc2c1	12.1	1870
O=C(O)Cc1c(O)ccc2ccccc12	> 100	
O=C1/C(=C\c2cccn2Cc2ccccc2)c2ccccc2N1c1c(Cl)cccc1Cl	> 100	> 100000
Cc1sc2nc(NCCc3c[nH]c4ccc(Cl)cc34)[nH]c(=O)c2c1C	13	3590
CSC1(CC(=O)N(C)C)C(=O)Nc2ccccc21 (stereo not given)	> 100	
COc1cc(/C=C2\C(=O)Nc3ccc(F)cc32)cc(OC)c1OC	> 100	18400
C#C[C@]1(O)CC[C@H]2[C@@H]3CC=C4c5sc(Nc6ccccc6)nc5CC[C@]4(C)[C@H]3CC[C@@]21C	4.71	1870
O=C(O)c1c(-c2nccc3ccccc23)[nH]c(-c2ccccc2)c1S(=O)(=O)O	> 100	
COc1ccc(/C=c2/sc3n(c2=O)C(c2ccc(OC)c(OC)c2)C2=C(N=3)c3cc(F)ccc3OC2)cc1 (stereo not given)	> 100	43300
O=C(O)c1cc(O)c2c(c1)C(C1c3cc(C(=O)O)cc(O)c3C(=O)c3c(OC4OC(CO)C(O)C(O)C4O)cccc31)c1cccc(OC3OC(CO)C(O)C(O)C3O)c1C2=O (stereo not given)	> 100	> 100000
O=C(CN(C1CCCCC1)C1CCCCC1)Nc1ccc(S(=O)(=O)c2ccc(NC(=O)CN(C3CCCCC3)C3CCCCC3)cc2)cc1	2.38	1140
O=c1[nH]c2cc(Cl)ccc2n1C1CCN(CCCC(c2ccc(F)cc2)c2ccc(F)cc2)CC1	3.32	1820
Cc1c[n+](Cc2ccc3ccccc3c2)cn1Cc1ccc2ccccc2c1	9.61	2550
Nc1nc(Br)nc2c1ncn2C1CC(O)C(CO)O1 (stereo not given)	> 100	44300
Nc1nc(Nc2ccccc2)c2ncn(Cc3cc4c(cc3Br)OCO4)c2n1	13.7	184
CCOC(=O)N1CCN(C(=O)c2ccc(C(F)(F)F)nc2Nc2cc(Cl)ccc2C)CC1	> 100	48200
Cc1ccc(Nc2nc(N)c(C(=O)c3ccc(C#N)cc3)s2)cc1	> 100	675
C#CC(=O)Nc1cccc(Nc2nc3c(c(NCc4ccccc4)n2)CCCC3)c1	1.95	446
N#CC1Nc2ccccc2[C@@H](O)C1O (stereo not given in full)	> 100	
CC(C)c1ccccc1S(=O)c1ccccc1C(C)(C)O (stereo not given)	> 100	
Cc1c(C2Nc3ccccc3C2C)[nH]c2ccccc12 (stereo not given)	38.7	14500
CCN(CC)CCNCC(=O)Oc1ccc(/C=C/C(=O)CC(=O)/C=C/c2ccc(OC(=O)CNCCN(CC)CC)c(OC)c2)cc1OC	9.56	2740
CCCS(=O)(=O)Nc1ccc(Nc2c3ccccc3nc3ccccc23)c(OC)c1	4.54	
CN(C)Cc1c[nH]c2c1C(=O)c1c(c(O)c3ccccc3c1O)C2=O	11.5	923

tested on: SK-MEL-5 melanoma; experiment: NCI-60 cell line screen, 48 h

SMILES	TGI [µM]	GI50 [nM]
N#CC1(C2SCCS2=O)C2=C(C(=O)c3ccccc3C2=O)N2CCCC21 (stereo not given)	1.1	
CC(=O)Oc1ccccc1C(=O)N=C1[Se]CCN1C(=O)c1ccccc1OC(C)=O	2.05	566
Cc1n(Cc2ccc3ccccc3c2)cc[n+]1Cc1ccc2ccccc2c1	1.87	628
O=C(O)Cc1c(O)ccc2ccccc12	> 100	
O=C1/C(=C\c2cccn2Cc2ccccc2)c2ccccc2N1c1c(Cl)cccc1Cl	> 100	3020
Cc1sc2nc(NCCc3c[nH]c4ccc(Cl)cc34)[nH]c(=O)c2c1C	3.88	1980
CSC1(CC(=O)N(C)C)C(=O)Nc2ccccc21 (stereo not given)	> 100	
COc1cc(/C=C2\C(=O)Nc3ccc(F)cc32)cc(OC)c1OC	> 100	17300
C#C[C@]1(O)CC[C@H]2[C@@H]3CC=C4c5sc(Nc6ccccc6)nc5CC[C@]4(C)[C@H]3CC[C@@]21C	3.26	1720
O=C(O)c1c(-c2nccc3ccccc23)[nH]c(-c2ccccc2)c1S(=O)(=O)O	> 100	
COc1ccc(/C=c2/sc3n(c2=O)C(c2ccc(OC)c(OC)c2)C2=C(N=3)c3cc(F)ccc3OC2)cc1 (stereo not given)	> 62.4	22300
O=C(O)c1cc(O)c2c(c1)C(C1c3cc(C(=O)O)cc(O)c3C(=O)c3c(OC4OC(CO)C(O)C(O)C4O)cccc31)c1cccc(OC3OC(CO)C(O)C(O)C3O)c1C2=O (stereo not given)	> 100	> 100000
O=C(CN(C1CCCCC1)C1CCCCC1)Nc1ccc(S(=O)(=O)c2ccc(NC(=O)CN(C3CCCCC3)C3CCCCC3)cc2)cc1	1.65	395
O=c1[nH]c2cc(Cl)ccc2n1C1CCN(CCCC(c2ccc(F)cc2)c2ccc(F)cc2)CC1	2.89	1550
Cc1c[n+](Cc2ccc3ccccc3c2)cn1Cc1ccc2ccccc2c1	1.94	688
Nc1nc(Br)nc2c1ncn2C1CC(O)C(CO)O1 (stereo not given)	> 100	29300
Nc1nc(Nc2ccccc2)c2ncn(Cc3cc4c(cc3Br)OCO4)c2n1	0.278	48.5
CCOC(=O)N1CCN(C(=O)c2ccc(C(F)(F)F)nc2Nc2cc(Cl)ccc2C)CC1	23.2	10100
Cc1ccc(Nc2nc(N)c(C(=O)c3ccc(C#N)cc3)s2)cc1	10.7	320
C#CC(=O)Nc1cccc(Nc2nc3c(c(NCc4ccccc4)n2)CCCC3)c1	2.44	1120
CCCCCCCCCc1cc(=O)c2c(O)cccc2o1	46.6	
N#CC1Nc2ccccc2[C@@H](O)C1O (stereo not given in full)	> 100	
CC(C)c1ccccc1S(=O)c1ccccc1C(C)(C)O (stereo not given)	81.5	
Cc1c(C2Nc3ccccc3C2C)[nH]c2ccccc12 (stereo not given)	17.4	894
CCN(CC)CCNCC(=O)Oc1ccc(/C=C/C(=O)CC(=O)/C=C/c2ccc(OC(=O)CNCCN(CC)CC)c(OC)c2)cc1OC	9.65	2570
COC(=O)C12C3C4C5(C(=O)OC)C(C1C35C(=O)N(C(C)C)C(C)C)C42C(=O)N(C(C)C)C(C)C (stereo not given)	> 50	
Cc1cc(C)n(CCNCCn2nc(C)cc2C)n1	> 100	
O=C1CSC(Cc2nc3ccccc3[nH]2)=N1	26.6	
CCCS(=O)(=O)Nc1ccc(Nc2c3ccccc3nc3ccccc23)c(OC)c1	14.7	
